Source: ChEMBL document CHEMBL1641373, “Trishomocubane as a scaffold for the development of selective dopamine transporter (DAT) ligands” (Bioorg Med Chem Lett, 2011)

Experiments:
[1] = target: T1, Alpha-1A adrenergic receptor (Homo sapiens) (UniProt P35348); test: Inhibition of alpha1A adrenergic receptor at 10 uM
T1 sequence (whole entry): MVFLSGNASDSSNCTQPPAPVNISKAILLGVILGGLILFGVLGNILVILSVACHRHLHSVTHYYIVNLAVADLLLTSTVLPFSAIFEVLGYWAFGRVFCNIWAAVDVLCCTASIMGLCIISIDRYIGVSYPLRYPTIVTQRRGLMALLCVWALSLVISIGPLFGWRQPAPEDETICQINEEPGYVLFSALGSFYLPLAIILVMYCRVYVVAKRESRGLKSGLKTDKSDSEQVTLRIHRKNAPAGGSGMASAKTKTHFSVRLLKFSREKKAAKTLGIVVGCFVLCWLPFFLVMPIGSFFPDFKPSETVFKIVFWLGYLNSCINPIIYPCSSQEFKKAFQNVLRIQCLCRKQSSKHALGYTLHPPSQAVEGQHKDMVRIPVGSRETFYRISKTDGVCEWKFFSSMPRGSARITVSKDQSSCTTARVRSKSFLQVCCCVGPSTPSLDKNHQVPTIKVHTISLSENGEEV

[2] = target: Histamine H4 receptor (Homo sapiens) (UniProt Q9H3N8); test: Inhibition of H4 receptor at 10 uM
Histamine H4 receptor (Homo sapiens), sequence (Q9H3N8 whole entry): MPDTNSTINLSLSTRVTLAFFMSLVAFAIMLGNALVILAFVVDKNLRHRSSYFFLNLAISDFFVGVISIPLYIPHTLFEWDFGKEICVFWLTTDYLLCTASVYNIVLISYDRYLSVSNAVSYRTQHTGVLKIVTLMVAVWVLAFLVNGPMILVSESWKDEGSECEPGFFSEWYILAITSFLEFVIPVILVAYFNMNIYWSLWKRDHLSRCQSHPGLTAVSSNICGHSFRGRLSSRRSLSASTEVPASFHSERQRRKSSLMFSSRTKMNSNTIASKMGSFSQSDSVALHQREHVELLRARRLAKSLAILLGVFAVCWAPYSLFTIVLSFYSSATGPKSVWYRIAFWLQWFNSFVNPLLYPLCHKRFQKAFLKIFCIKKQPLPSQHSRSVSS

[3] = target: T2, Muscarinic acetylcholine receptor M4 (Homo sapiens) (UniProt P08173); test: Inhibition of muscarinic M4 receptor at 10 uM
T2 sequence (whole entry): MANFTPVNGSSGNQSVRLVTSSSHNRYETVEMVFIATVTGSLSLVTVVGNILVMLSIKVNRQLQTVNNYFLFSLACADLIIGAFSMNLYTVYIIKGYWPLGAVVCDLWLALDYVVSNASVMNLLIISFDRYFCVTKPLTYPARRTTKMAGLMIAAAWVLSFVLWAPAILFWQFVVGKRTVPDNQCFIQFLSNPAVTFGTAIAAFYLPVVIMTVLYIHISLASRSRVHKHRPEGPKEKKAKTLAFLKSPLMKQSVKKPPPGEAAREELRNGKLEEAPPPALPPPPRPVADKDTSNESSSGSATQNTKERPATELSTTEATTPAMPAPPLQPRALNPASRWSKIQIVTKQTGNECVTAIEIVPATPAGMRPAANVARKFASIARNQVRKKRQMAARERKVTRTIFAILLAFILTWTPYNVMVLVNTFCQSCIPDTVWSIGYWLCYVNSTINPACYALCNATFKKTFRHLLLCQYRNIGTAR

[4] = target: Mu-type opioid receptor (Homo sapiens) (UniProt P35372); test: Inhibition of mu opioid receptor at 10 uM
Mu-type opioid receptor (Homo sapiens), sequence (P35372 whole entry): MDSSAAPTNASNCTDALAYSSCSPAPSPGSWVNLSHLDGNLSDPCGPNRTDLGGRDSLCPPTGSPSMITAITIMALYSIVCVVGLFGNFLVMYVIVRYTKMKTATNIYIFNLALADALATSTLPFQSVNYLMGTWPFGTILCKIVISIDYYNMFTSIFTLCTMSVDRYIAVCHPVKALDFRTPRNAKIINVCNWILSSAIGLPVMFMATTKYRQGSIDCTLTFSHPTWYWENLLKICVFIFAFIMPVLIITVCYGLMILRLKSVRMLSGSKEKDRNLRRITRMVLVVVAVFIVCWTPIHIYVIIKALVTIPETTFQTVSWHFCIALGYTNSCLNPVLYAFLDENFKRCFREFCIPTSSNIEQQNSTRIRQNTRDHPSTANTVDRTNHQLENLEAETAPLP

[5] = target: 5-hydroxytryptamine receptor 6 (Homo sapiens, UniProt P50406); test: Inhibition of 5HT6 receptor at 10 uM
5-hydroxytryptamine receptor 6, sequence (P50406 whole entry): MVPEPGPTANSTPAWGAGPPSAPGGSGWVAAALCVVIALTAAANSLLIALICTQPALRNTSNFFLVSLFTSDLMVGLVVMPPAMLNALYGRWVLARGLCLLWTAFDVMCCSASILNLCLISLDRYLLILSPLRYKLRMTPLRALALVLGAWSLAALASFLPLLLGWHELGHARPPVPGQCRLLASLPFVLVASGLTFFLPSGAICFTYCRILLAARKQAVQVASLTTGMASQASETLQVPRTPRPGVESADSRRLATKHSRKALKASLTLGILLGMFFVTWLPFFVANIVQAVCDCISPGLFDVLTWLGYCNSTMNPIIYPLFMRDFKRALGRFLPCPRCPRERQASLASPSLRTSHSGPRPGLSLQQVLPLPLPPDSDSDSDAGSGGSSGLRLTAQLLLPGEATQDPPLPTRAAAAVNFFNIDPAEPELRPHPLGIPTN

[6] = target: 5-hydroxytryptamine receptor 1B (Homo sapiens) (UniProt P28222); test: Inhibition of 5HT1B receptor at 10 uM
5-hydroxytryptamine receptor 1B (Homo sapiens), sequence (P28222 whole entry): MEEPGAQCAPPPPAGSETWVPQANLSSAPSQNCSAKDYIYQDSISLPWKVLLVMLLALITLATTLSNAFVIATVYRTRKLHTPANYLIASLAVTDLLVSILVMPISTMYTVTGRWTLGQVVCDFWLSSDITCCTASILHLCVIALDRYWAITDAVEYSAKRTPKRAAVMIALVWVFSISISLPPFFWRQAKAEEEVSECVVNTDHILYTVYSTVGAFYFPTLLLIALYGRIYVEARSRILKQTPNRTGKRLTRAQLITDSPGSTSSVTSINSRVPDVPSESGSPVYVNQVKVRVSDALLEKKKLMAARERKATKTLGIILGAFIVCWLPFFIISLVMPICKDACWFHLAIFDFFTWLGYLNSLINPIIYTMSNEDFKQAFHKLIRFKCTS

[7] = target: T3, Alpha-1B adrenergic receptor (Homo sapiens) (UniProt P35368); test: Inhibition of Alpha-1B adrenergic receptor at 10 uM
T3 sequence (whole entry): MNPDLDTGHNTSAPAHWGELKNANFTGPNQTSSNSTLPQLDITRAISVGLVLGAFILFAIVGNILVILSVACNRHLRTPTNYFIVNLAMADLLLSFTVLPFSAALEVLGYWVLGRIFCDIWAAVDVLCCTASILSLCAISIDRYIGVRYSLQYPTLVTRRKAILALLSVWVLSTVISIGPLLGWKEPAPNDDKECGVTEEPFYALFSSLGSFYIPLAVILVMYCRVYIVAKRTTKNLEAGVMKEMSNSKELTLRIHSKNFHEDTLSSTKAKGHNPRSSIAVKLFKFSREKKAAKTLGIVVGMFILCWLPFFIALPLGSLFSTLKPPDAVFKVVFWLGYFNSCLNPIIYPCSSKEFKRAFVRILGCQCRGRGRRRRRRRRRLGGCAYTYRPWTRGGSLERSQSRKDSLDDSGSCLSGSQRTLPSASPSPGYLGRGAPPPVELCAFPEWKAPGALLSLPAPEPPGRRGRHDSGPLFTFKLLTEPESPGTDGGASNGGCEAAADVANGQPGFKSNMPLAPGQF

[8] = target: Delta-type opioid receptor (Homo sapiens) (UniProt P41143); test: Inhibition of delta opioid receptor at 10 uM
Delta-type opioid receptor (Homo sapiens), sequence (P41143 whole entry): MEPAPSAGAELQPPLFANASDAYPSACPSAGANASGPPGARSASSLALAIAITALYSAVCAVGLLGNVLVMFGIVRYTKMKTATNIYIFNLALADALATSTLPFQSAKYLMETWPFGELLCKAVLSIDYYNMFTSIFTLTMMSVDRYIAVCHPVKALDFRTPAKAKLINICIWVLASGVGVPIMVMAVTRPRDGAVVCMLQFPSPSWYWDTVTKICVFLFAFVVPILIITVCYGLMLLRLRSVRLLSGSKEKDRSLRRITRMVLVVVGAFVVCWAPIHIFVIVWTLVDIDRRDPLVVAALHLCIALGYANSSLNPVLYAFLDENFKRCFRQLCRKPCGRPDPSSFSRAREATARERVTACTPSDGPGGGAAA

[9] = target: Muscarinic acetylcholine receptor M3 (Homo sapiens, UniProt P20309); test: Inhibition of muscarinic M3 receptor at 10 uM
Muscarinic acetylcholine receptor M3, sequence (P20309 whole entry, looked up): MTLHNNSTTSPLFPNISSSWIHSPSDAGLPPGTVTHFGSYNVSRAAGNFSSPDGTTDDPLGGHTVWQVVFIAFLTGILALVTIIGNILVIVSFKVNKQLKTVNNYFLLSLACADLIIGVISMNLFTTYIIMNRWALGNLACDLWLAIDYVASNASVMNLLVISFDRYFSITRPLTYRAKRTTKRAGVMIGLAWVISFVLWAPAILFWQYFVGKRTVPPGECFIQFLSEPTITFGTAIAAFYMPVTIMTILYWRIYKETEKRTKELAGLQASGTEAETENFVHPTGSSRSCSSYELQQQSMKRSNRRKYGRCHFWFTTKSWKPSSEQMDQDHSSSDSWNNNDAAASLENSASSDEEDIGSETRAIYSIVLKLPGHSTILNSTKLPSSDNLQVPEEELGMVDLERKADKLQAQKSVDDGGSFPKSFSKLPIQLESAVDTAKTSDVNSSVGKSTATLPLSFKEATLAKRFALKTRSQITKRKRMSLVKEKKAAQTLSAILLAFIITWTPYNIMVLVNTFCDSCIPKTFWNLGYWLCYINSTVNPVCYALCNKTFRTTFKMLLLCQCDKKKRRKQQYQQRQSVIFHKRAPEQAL

[10] = target: Sodium-dependent serotonin transporter (Homo sapiens, UniProt P31645); test: Displacement of [3H]citalopram from human SERT expressed in HEK cells; type: cell-based; details: for inhibition: HEK293, concentration not given here
[11] = target: 5-hydroxytryptamine receptor 7 (Homo sapiens) (UniProt P34969); test: Inhibition of 5HT7 receptor at 10 uM
5-hydroxytryptamine receptor 7 (Homo sapiens), sequence (P34969 whole entry): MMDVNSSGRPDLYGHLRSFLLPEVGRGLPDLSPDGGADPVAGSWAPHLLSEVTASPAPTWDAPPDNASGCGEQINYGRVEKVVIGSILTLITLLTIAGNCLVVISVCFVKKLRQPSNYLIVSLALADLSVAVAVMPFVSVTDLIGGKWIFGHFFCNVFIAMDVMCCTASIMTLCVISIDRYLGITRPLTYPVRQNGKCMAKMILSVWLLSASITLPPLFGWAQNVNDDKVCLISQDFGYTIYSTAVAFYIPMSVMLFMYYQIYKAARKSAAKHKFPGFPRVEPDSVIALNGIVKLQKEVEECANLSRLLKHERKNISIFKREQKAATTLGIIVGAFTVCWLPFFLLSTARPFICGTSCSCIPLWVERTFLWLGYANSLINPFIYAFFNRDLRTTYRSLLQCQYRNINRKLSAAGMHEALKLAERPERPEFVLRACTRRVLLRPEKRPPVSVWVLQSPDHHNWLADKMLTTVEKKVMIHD

[12] = target: T4, Alpha-2A adrenergic receptor (Homo sapiens) (UniProt P08913); test: Inhibition of alpha2A adrenergic receptor at 10 uM
T4 sequence (whole entry): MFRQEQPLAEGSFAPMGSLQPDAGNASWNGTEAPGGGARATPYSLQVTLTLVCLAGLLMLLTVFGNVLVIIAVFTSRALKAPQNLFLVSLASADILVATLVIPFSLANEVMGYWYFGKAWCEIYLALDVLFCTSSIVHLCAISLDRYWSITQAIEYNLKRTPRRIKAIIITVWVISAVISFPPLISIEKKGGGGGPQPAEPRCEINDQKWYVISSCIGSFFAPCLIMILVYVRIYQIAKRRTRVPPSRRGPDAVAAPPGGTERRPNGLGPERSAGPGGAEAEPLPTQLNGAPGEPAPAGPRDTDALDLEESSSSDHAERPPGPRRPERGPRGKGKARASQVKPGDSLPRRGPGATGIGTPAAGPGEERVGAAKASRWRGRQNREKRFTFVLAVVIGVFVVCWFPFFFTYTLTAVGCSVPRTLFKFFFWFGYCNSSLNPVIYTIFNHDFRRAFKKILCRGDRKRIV

[13] = target: 5-hydroxytryptamine receptor 1D (Homo sapiens) (UniProt P28221); test: Inhibition of 5HT1D receptor at 10 uM
5-hydroxytryptamine receptor 1D (Homo sapiens), sequence (P28221 whole entry): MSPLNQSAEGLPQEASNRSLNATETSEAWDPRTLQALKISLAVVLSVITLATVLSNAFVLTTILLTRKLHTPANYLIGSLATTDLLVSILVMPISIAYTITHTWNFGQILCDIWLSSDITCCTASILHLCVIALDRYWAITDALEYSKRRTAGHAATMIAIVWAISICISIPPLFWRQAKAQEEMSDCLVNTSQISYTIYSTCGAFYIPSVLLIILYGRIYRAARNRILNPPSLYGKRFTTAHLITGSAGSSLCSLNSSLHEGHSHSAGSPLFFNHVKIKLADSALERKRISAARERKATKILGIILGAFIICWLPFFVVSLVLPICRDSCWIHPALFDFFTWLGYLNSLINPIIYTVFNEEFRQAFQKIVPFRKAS

[14] = target: T5, Muscarinic acetylcholine receptor M2 (Homo sapiens) (UniProt P08172); test: Inhibition of muscarinic M2 receptor at 10 uM
T5 sequence (whole entry): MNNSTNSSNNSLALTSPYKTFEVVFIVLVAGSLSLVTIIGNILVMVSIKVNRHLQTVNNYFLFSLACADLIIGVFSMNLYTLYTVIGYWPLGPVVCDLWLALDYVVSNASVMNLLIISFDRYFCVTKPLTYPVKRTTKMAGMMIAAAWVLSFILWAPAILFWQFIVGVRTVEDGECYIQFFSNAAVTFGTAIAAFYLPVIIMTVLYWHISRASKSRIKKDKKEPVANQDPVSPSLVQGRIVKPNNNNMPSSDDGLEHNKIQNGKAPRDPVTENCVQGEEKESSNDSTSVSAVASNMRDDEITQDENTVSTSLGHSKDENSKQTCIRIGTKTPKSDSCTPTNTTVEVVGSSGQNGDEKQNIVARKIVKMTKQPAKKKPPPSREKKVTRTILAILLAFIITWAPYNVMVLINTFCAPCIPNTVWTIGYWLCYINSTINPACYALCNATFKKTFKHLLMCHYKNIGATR

Row | Compound | inhibition [1] | inhibition [2] | inhibition [3] | inhibition [4] | inhibition [5] | inhibition [6] | inhibition [7] | inhibition [8] | inhibition [9] | inhibition [10] | inhibition [11] | inhibition [12] | inhibition [13] | inhibition [14] | Ki [10]
1 | CN(CCc1cccc(F)c1)[C@H]1C2C3CC4C5C3CC2C5C41 (stereo partly specified) | < 50% | < 50% | < 50% | < 50% | < 50% | < 50% | < 50% | < 50% | < 50% | < 50% | < 50% | < 50% | < 50% | < 50% | 
2 | Fc1cccc(CCN[C@H]2C3C4CC5C6C4CC3C6C52)c1 (stereo partly specified) | < 50% | < 50% |  | < 50% |  | < 50% | < 50% | < 50% |  |  | < 50% |  | < 50% |  | > 10 µM
3 | CN(Cc1cccc(F)c1)[C@H]1C2C3CC4C5C3CC2C5C41 (stereo partly specified) | < 50% | < 50% | < 50% | < 50% | < 50% | < 50% | < 50% | < 50% | < 50% | < 50% | < 50% | < 50% | < 50% | < 50% | 
4 | Fc1cccc(CN[C@H]2C3C4CC5C6C4CC3C6C52)c1 (stereo partly specified) | < 50% | < 50% | < 50% | < 50% | < 50% | < 50% | < 50% | < 50% | < 50% |  | < 50% | < 50% | < 50% | < 50% | > 10 µM
